# Results as given in paper PMC3581553, “New Approaches of PARP-1 Inhibitors in Human Lung Cancer Cells and Cancer Stem-Like Cells by Some Selected Anthraquinone-Derived Small Molecules” (PLoS ONE, 2013).
# Like-named read-outs stand apart in the source and are kept apart here.
# Experiments:
# [1] = test system: Oct-4- and Nanog-overexpressed A549 clone (A3); assay: MTT cytotoxicity assay, A3 cells; format: cell-based; conditions: Homo sapiens, 48 h of drug exposure
# Description: (§1) Non-small cell lung cancer cells A549 and Oct-4- and Nanog-overexpressed A549 clone (clone #3; A3), presented the properties of cancer stem-like cells, as well as epithelial-mesenchymal transdifferentiation, according to our previous study. They were grown in the same conditions as RPMI 1640 media supplemented with 10% fetal bovine serum (FBS), 100 units/mL penicillin, […] streptomycin, 1 mM sodium pyruvate, 2 mM l-glutamine and 1% non-essential amino acid (NEAA) in a humidified atmosphere with 5% CO2 at 37°C. Normal fibroblast cells HEL299 from American Type Culture Collection (ATCC) were grown in MEM media supplemented with 10% FBS, 100 units/mL penicillin, […] streptomycin, 1 mM sodium pyruvate, 2 mM l-glutamine and 1% NEAA, in a humidified atmosphere with 5% CO2 at 37°C.
# (§2) The tetrazolium reagent (MTT; 3-(4,5-dimethylthiazol-2-yl)-2,5-diphenyl-tetrazolium bromide, USB) was designed to yield a colored formazan upon metabolic reduction by viable cells, [61]. Approximately 5×10^4 cells were plated onto each well of a 24-well plate and incubated in 5% CO2 at 37°C for 24 hours. To assess the in vitro cytotoxicity, each compound was dissolved in DMSO and prepared immediately before the experiments and then was diluted into the complete medium before being added to cell cultures. Test compounds were then added to the culture medium in various designated concentrations. After 48 hours, an amount of 100 µl of MTT was added to each well, and the samples were incubated at 37°C for 2 h. 100 µl DMSO was added to each well. The absorbency at 560 nm and reference absorbency at 670 nm were measured using an ELISA reader.
# [2] = test system: A549 cells; assay: MTT cytotoxicity assay, A549 cells; format: cell-based; conditions: Homo sapiens, 48 h of drug exposure
# Description: as §1, §2
# [3] = test system: HEL299 cells; assay: MTT cytotoxicity assay, HEL299 normal fibroblasts; format: cell-based; conditions: Homo sapiens, HEL 299, 48 h of drug exposure
# Description: as §1, §2
# [4] = target: T1, PARP-1 (Homo sapiens, UniProt P09874); assay: PARP inhibitory assay (histone-coated plate, colorimetric); format: biochemical
# T1 construct: purchased
# T1 sequence (P09874 whole entry): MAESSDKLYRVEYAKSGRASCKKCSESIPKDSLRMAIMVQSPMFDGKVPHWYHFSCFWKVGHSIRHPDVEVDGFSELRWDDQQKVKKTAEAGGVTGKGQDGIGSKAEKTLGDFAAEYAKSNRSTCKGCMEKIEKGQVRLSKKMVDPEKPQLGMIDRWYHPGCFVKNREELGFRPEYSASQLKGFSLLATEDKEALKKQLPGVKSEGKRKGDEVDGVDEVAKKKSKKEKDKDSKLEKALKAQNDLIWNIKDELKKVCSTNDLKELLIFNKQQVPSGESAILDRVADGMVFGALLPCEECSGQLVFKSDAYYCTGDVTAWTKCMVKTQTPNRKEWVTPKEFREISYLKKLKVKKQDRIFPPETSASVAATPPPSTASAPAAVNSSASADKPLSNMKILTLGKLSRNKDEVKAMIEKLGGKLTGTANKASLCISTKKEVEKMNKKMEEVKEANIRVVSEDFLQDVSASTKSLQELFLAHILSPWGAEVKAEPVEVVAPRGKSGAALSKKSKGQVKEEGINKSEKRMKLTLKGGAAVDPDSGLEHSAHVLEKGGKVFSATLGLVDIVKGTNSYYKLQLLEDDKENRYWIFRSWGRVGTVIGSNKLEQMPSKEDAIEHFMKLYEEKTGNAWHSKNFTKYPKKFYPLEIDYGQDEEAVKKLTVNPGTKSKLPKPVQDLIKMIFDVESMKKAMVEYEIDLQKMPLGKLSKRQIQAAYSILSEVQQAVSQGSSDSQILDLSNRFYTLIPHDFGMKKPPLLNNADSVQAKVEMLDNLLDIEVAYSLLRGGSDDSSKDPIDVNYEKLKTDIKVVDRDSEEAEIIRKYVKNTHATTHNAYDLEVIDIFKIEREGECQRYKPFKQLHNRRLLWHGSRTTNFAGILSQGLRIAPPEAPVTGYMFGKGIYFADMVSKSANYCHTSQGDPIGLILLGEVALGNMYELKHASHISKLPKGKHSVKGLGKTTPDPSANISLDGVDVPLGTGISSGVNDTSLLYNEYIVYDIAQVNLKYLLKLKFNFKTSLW
# Description: We used histone-coated 96-well plate treated with seven putative PARP-1 inhibitors or well-known PARP-1 inhibitors (3-AB), and then added PARP enzyme to each well. PARP enzyme catalyzes the NAD-dependent addition of poly (ADP-ribose) to histone, and diluted Strp-HRP could bind to PARylation histone. TACS-Sapphire™ yielded blue under the HRP existence. In order to systematically evaluate the potential anticancer activity, the compounds were tested for their cytotoxicity in vitro against 60 human cancer lines in the NCI anticancer drug screen as well as for dose response curves and telomerase activity. Cell growth was analyzed by the MTT assay, with differences between dose-response curves analyzed non-parametrically. Telomerase activity was detected by a modified version of the PCR-based assay and TRAP assay. […] However, PARP inhibitory effects had no difference at 1 and 10 µM. As described above, NSC746364, NSC746366 and NSC749232 show dose-dependency only at low concentrations. […] NSC747854 had dose-dependent PARP inhibitory manners at three different concentrations, and reached the maximum inhibitory effect of 86% at 10 µM (Table 4). […] In this investigation, we continued to focus our attention on the role of NSC747854 and to understand the basis of pharmacophore selectivity. Of particular note is the significant difference with these selected compounds, compared with that of 3-AB and PJ-34. […] An electron-rich aromatic ring system, including a carboxamide group, should have at least a hydrogen atom on the amide nitrogen. The amidinium moiety is known to contribute to the stabilization of DNA recognition element through electrostatic and hydrogen bonding interactions. Therefore, hydrogen bonds are frequently used as recognition elements due to their directionality and also due to being attractive factors to the biological activity (Figure 1). Many classes of drugs have substantial curvature, high DNA affinity, binding to the minor-groove or major-groove, interference with DNA-associated enzymes (e.g. telomerase), and Poly (ADP-ribose) polymerase, PARP. […] This approach greatly expands the utility of the substituents and related pharmacophore for the construction of drugs in general. Therefore, it is desirable to design PARP inhibitors in accordance with various anticancer parameters. It was first reported that anthraquinone analogues are potent human PARP inhibitors.
# Strip wells were removed from the wrapper and 50 µl of 1X PARP Buffer was added to each well to rehydrate the histones. They were incubated at room temperature for 30 minutes. The 1X PARP buffer was removed from the wells by tapping the strip wells on paper towels. The serial dilutions of inhibitor of interest were added to appropriate wells. The diluted PARP enzyme (0.5 unit/well) was then added to the wells containing inhibitor. They were incubated for 10 minutes at room temperature. The PARP Enzyme-High Specific Activity (PARP-HAS) standard was serially diluted in cold micro-tubes with 1X PARP buffer such that the total activity was 1 unit/25 µl, 0.5 units/25 µl, 0.25 units/25 µl, 0.1 units/25 µl, 0.05 units/25 µl, 0.025 units/25 µl, and 0.01 units/25 µl, respectively. The 25 µl of each standard was added to triplicate wells. The 25 µl of 1X PARP cocktail were distributed into each well by using a multichannel pipettor. The final reaction volume is 50 µl. They were incubated along with the strip wells at room temperature for 60 minutes. The strip wells were washed 2 times with 1X PBS +0.1% Triton X-100 (200 µl/well) followed by 2 washes with 1X PBS. All the liquid was removed following each wash by tapping strip wells onto paper towels. The 50 µl diluted Strep-HRP were added per well. They were incubated at room temperature for 60 minutes. The strip wells were washed 2 times with 1X PBS +0.1% Triton X-100 (200 µl/well) followed by 2 washes with 1X PBS. All the liquid was removed following each wash by tapping strip wells onto paper towels. […]
# [5] = test system: A549/ATCC; assay: NCI-60 drug screen (SRB), NSCLC line A549/ATCC; format: cell-based, human
# Description: (§3) As a primary screening, seven selected compounds were submitted to the National Cancer Institute (NCI) cell lines screen for evaluation of their anticancer activity. From the data analysis, it follows that approximately 95% of the actives from the 60 cell lines screen can be identified. The detailed methods used for the 60 cell lines panel have been described elsewhere [54]–[59]. Briefly, cellular protein levels were determined after 48 hours of drug exposure by SRB colorimetry. Through the use of a time zero cell control, the cell growth can be determined for each cell line thus allowing calculations of GI50, TGI, and LC50. Comparison to plates not exposed to drug permits determination of concentration and times of exposure conferring GI50, TGI, and LC50. […] By these criteria, seven compounds reported from our compounds bank were all active and passed on for evaluation in the full panel of 60 human tumor cell lines. The panel is organized into nine subpanels representing diverse histology: leukemia, melanoma, and cancers of the lung, colon, kidney, ovary, breast, prostate, and central nervous system.
# [6] = test system: EKVX; assay: NCI-60 drug screen (SRB), NSCLC line EKVX; format: cell-based, human
# Description: as §3
# [7] = test system: HOP-62; assay: NCI-60 drug screen (SRB), NSCLC line HOP-62; format: cell-based, human
# Description: as §3
# [8] = test system: NCI-H226; assay: NCI-60 drug screen (SRB), NSCLC line NCI-H226; format: cell-based, human
# Description: as §3
# [9] = test system: NCI-H23; assay: NCI-60 drug screen (SRB), NSCLC line NCI-H23; format: cell-based, human
# Description: as §3
# [10] = test system: NCI-H322M; assay: NCI-60 drug screen (SRB), NSCLC line NCI-H322M; format: cell-based, human
# Description: as §3
# [11] = test system: NCI-H460; assay: NCI-60 drug screen (SRB), NSCLC line NCI-H460; format: cell-based, human
# Description: as §3
# [12] = test system: NCI-H522; assay: NCI-60 drug screen (SRB), NSCLC line NCI-H522; format: cell-based, human
# Description: as §3
# [13] = Homo sapiens, 48 hours drug exposure, SRB
# [14] = Homo sapiens, 48 hours drug exposure, SRB, read-out: GI50
# [15] = Homo sapiens, NCI in vitro 60-cell lines Drug Screen, read-out: -Log GI50 (converted)
# [16] = Homo sapiens, 48 hours drug exposure, SRB, read-out: LC50 (the source's name)
compound,measurement,setting,value
"NC(=O)c1cccc(N)c1 [3-AB, 3-Aminobenzamide, reference compound]",IC50,[1],10.8 µM
same,IC50,[2],13.1 µM
same,IC50,[3],5.98 µM
same,inhibition at 0.1 µM,[4],4%
same,inhibition at 1 µM,[4],10%
same,inhibition at 10 µM,[4],18%
"CN(C)CC(=O)Nc1ccc2[nH]c(=O)c3ccccc3c2c1 [PJ-34, reference compound]",IC50,[1],9.44 µM
same,IC50,[2],31.7 µM
same,IC50,[3],14.7 µM
O=C1c2ccccc2C(=O)c2c1ccc1nc(SCCN3CCCC3)[nH]c21 [NSC747515],TGI,"[5]; 48 hours drug exposure, SRB",15.0 µM
same,LC50 (concentration killing 50% of cells),[5]; [13],41.8 µM
same,GI50,[5]; [14],3.8 µM
same,GI50,[5]; [15],3.8 µM
same,TGI,"[6]; 48 hours drug exposure, SRB",26.5 µM
same,LC50,[6]; [13],62.4 µM
same,GI50,[6]; [14],11.2 µM
same,GI50,[6]; [15],11.2 µM
same,TGI,"[7]; 48 hours drug exposure, SRB",33.2 µM
same,GI50,[7]; [14],18 µM
same,CC50,[7]; [16],61.2 µM
same,GI50,[7]; [15],18.2 µM
same,TGI,"[8]; 48 hours drug exposure, SRB",36.6 µM
same,GI50,[8]; [14],19.3 µM
same,CC50,[8]; [16],69.7 µM
same,GI50,[8]; [15],19.5 µM
same,TGI,"[9]; 48 hours drug exposure, SRB",25.7 µM
same,GI50,[9]; [14],11.6 µM
same,CC50,[9]; [16],56.9 µM
same,GI50,[9]; [15],11.5 µM
same,TGI,"[10]; 48 hours drug exposure, SRB",21.4 µM
same,LC50,[10]; [13],47.3 µM
same,GI50,[10]; [14],8.21 µM
same,GI50,[10]; [15],8.13 µM
same,TGI,"[11]; 48 hours drug exposure, SRB",4.77 µM
same,LC50 (concentration killing 50% of cells),[11]; [13],29.3 µM
same,GI50,[11]; [14],1.68 µM
same,GI50,[11]; [15],1.7 µM
same,TGI,"[12]; 48 hours drug exposure, SRB",32.5 µM
same,GI50,[12]; [14],15.9 µM
same,CC50,[12]; [16],66.2 µM
same,GI50,[12]; [15],15.8 µM
same,IC50,[1],7.05 µM
same,IC50,[2],11.8 µM
same,IC50,[3],25.9 µM
same,inhibition at 0.1 µM,[4],20%
same,inhibition at 1 µM,[4],22%
same,inhibition at 10 µM,[4],24%
